The values below come from patent US6835735B2, “4-(phenylamino)-[1,4]dioxano[2,3-g]quinazoline derivatives and process for preparing the same” (Korea Institute of Science and Technology, priority 2001, dated 2004).

Molecules are shown by their SMILES. ≈ marks a conversion by molar mass, not a printed value. Where a name gives a salt, the structure may show the parent alone.

For data set [1] the following is noted: background statement; cited from earlier work.
Data set [2] can be described thus: Measurement of the solubility of compounds in water (HPLC calibration curve). Type of data set: physicochemical. The note with it: supersaturated in 1 ml of water, centrifuged, supernatant by HPLC; for solubility thermodynamic: read-out: Solubility (mg/10 ml of water). The method, then:
That is, 1 mg of each of the above compounds was completely dissolved in 1 ml of DMSO, which was then subjected to HPLC employing C18 resin, and the peak area of chromatogram was calculated. And then, 1 mg of each of the same compound was dissolved in 10 ml of DMSO, which was then subjected to the same HPLC as the above to obtain a chromatogram, and the peak area was calculated therefrom. A solubility calibration curve was prepared by employing the above two data, and a linear function was deduced from that to complete a calibration curve (X axis: area, Y axis: logarithm value of concentration).
Each of the same compounds was supersaturated in 1 ml of water, which was then centrifuged at 14,000 rpm for 1 min. The precipitate was separated from the supernatant which was then subjected to the same HPLC as the above to obtain a chromatogram, and the peak area was calculated therefrom. The obtained value was substituted to the above calibration curve to measure the solubility by mg/10 ml of water (see: Table 1).

Data set [3] concerns A431 cancer cell. Description: Inhibition of cancer cell growth (sulforhodamine B). Type of data set: cell-based. The settings on record: for GI50: Homo sapiens, A-431, 48 h; for inhibitory effect of cancer cell growth compared with standard material DP153035: A431, comparison drawn from Table 3. As for the experimental part: A431 cancer cell was cultivated at 37° C. under an environment of 5% (v/v) CO2 employing RPMI 1640 medium containing 10% (v/v) fetal calf serum. […] The above cells was grown again for 2 days, and then, fixed with formalin solution (Sigma Chem. Co., U.S.A.) and washed with water. After that, the cells was dried in the atmosphere, stained with 0.1% (v/v) sulforhodamine B solution (Sigma Chem. Co., U.S.A.) for 30 min and wash with 1% (v/v) acetic acid aqueous solution. Then, dye attached to cells was extracted with 0.1M Tris-HCl (pH 8.0) and the absorbances of the remaining culture were measured at 520 nm by the aid of microplate reader. And then, the concentration of the compound by which cell growth is 50% inhibited was represented as GI50(s: Table 3).

Data set [4] concerns the target T1, purified human EGFR kinase (Homo sapiens, UniProt P00533).
T1 construct: purchased Promega
Briefly: Inhibition of EGFR tyrosine kinase (P32-ATP, biotin-conjugated substrate). It is filed as biochemical. The note with it: for IC50: purified human EGFR kinase, 50 μM ATP, 30° C., 10 min. As for the experimental part: The test was accomplished in a 20 μl reaction volume using 0.1 unit per reaction of purified human EGFR kinase (Promega, U.S.A.) and 50 μM biotin-conjugated substrate for tyrosine kinase (Promega, U.S.A.) and, 50 μM P^32-γ-ATP (0.2 μCi) and 20 mM Tris-HCl (pH 7.5) were employed as an ATP and a reaction solution, respectively. The test was carried out at 30° C. for 10 min, and terminated by the addition of 10 μl of 30% phosphate solution. The half of the reaction product was spotted onto avidin-layered PVDF membrane, which was then washed with 20 mM Tris-HCl (pH 8.0) and 0.2N NaCl aqueous solution for more than 2 hours.

The mark [5] stands for this setting: A431 cells, grown 2 days with compound, SRB staining.

T1 sequence (P00533 25-1210): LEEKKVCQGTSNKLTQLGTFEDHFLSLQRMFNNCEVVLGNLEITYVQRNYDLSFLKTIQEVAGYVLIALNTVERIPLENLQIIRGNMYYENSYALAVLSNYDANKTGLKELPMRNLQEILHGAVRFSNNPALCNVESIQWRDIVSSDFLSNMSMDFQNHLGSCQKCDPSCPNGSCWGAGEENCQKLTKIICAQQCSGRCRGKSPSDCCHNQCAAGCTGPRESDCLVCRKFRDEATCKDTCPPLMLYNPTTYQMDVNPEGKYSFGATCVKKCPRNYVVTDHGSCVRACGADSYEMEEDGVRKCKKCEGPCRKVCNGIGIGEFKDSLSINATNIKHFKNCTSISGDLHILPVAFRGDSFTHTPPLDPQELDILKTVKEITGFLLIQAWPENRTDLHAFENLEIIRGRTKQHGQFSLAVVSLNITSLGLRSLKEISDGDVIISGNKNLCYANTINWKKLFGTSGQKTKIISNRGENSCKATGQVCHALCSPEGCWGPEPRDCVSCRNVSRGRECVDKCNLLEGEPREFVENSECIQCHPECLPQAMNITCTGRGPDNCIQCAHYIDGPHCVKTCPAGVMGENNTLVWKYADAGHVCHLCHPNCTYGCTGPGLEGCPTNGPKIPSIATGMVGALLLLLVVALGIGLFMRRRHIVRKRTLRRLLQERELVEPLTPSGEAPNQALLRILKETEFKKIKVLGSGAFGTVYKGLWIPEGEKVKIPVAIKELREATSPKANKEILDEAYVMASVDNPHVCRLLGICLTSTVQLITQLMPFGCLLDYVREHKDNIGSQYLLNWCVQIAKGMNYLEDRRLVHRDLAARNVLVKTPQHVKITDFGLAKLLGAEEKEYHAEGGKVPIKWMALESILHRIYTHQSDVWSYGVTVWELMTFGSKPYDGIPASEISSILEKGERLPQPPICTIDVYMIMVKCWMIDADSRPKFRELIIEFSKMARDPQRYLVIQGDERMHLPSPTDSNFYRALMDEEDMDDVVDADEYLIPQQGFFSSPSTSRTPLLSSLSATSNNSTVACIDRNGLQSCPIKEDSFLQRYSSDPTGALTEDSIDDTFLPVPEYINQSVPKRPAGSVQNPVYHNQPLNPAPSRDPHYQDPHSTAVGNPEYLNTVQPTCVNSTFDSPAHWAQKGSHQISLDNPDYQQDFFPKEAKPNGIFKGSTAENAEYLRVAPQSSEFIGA

A word on the GI50: it is the concentration at which growth is held to half of that of the control. Consider `COc1cc2ncnc(Nc3cccc(Br)c3)c2cc1OC` [DP153035, reference compound], for which the “solubility in water (in words)” value in data set [1] was “insolubility in water”. Also, in data set [2], the solubility thermodynamic worked out at 20 µg/mL (≈ 55.5 µM). Besides, in data set [3] (setting [5]), the GI50 is 0.99 µg/mL (≈ 2.75 µM).

The term IC50 denotes the concentration at which inhibition is half-maximal. Take `COCC1COc2cc3ncnc(Nc4cccc(C(F)(F)F)c4)c3cc2O1` (centres unmarked) [Example 12, (3-trifluoromethylphenyl)-(7-methoxymethyl-[1,4]-dioxano[2,3-g]quinazolin-4-yl)-amine]: the solubility thermodynamic in data set [2] amounted to 74 µg/mL (≈ 189 µM). Besides, the “inhibitory effect of cancer cell growth compared with standard material DP153035” value in data set [3] is reported as “better inhibitory effect of cancer cell growth than the standard material”. The concentration for 50% growth inhibition (GI50) in data set [3] (setting [5]) was found to be 0.43 µg/mL (≈ 1.1 µM). Besides, the IC50 in data set [4] was more than 256 nM.

With `COCC1COc2cc3ncnc(Nc4cc(F)c(F)c(F)c4)c3cc2O1` (centres unmarked) [Example 18, (3,4,5-trifluorophenyl)-(7-methoxymethyl-[1,4]-ioxano[2,3-g]quinazolin-4-yl)-amine], the solubility thermodynamic in data set [2] is 45 µg/mL (≈ 119 µM). Moreover, in data set [3] (setting [5]), the GI50 was determined as 1.98 µg/mL (≈ 5.25 µM). In addition, the “inhibitory effect on EGFR tyrosine kinase compared with standard material DP153035” value in data set [4] (comparison drawn from Table 2) is “higher inhibitory effect than the standard material”. This molecule also had a half-maximal inhibitory concentration (IC50) in data set [4] of 4.19 nM.

On to `COc1cc2ncnc(Nc3ccc(F)c(Cl)c3)c2cc1OCCCN1CCOCC1` [ZD 1839], for which the “solubility in water (in words)” value in data set [1] is given as “does not have a high solubility”.

In the case of `Brc1cccc(Nc2ncnc3cc4c(cc23)OC(CN2CCOCC2)CO4)c1` (centres unmarked) [Example 31, (3-bromophenyl)-[7-(morpholin-4-ylmethyl)-[1,4]dioxano[2,3-g]quinazolin-4-yl]amine hydrochloride], the “Solubility (mg/10 ml of water)” value in data set [2] is given as >>1,000 mg/10 ml of water. The “inhibitory effect of cancer cell growth compared with standard material DP153035” value in data set [3] is given as “better inhibitory effect of cancer cell growth than the standard material”. Moreover, the “A431 GI50” value in data set [3] (A431 cells, grown 2 days with compound, SRB staining, hydrochloride) worked out at 0.19 µg/mL. For the same molecule, the IC50 in data set [4] is 101 nM.

One may read the melting point as the temperature, or range, at which the solid turns liquid. For `COCC1COc2cc3ncnc(Nc4cccc(F)c4)c3cc2O1` (centres unmarked) [Example 8, (3-fluorophenyl)-(7-methoxymethyl-[1,4]-dioxano[2,3-g]quinazolin-4-yl)-amine], the melting point was in the range of 257 to 260 °C. In data set [2], the solubility thermodynamic was 1040 µg/mL (≈ 3050 µM). For the same molecule, in data set [3] (setting [5]), the GI50 was 1.16 µg/mL (≈ 3.4 µM). In data set [4], the IC50 was more than 293 nM.
